The subject of the test is bacteria (ATCC reference strains). Briefly: Antibacterial activity, MIC by broth micro-dilution (CLSI). For orientation: In broth dilution the organism is exposed to a series of concentrations in liquid medium.
The mark [1] stands for this setting: Acinetobacter baumannii, read-out: Antibacterial Activity (MIC), E = A. baumannii B1931.
Where [2] appears, read: Enterobacter cloacae, read-out: Antibacterial Activity (MIC), B = Enterobacter cloacae B1966.
Setting [3] is: Escherichia coli, ATCC25922, read-out: Antibacterial Activity (MIC), A = E. coli ATCC 25922.
The mark [4] stands for this setting: Escherichia coli, BAA2469, read-out: Antibacterial Activity (MIC), G = E. coli BAA-2469.
The mark [5] stands for this setting: Haemophilus influenzae, ATCC49247, read-out: Antibacterial Activity (MIC), F = H. influenzae ATCC 49247.
The mark [6] stands for this setting: Klebsiella pneumoniae, ATCC700603, read-out: Antibacterial Activity (MIC), C = K. pneumoniae ATCC 700603.
Setting [7] is: Pseudomonas aeruginosa, ATCC27853, read-out: Antibacterial Activity (MIC), D = P. aeruginosa ATCC 27853.

≈ marks a conversion by molar mass, not a printed value. Where two headings read alike, the source gives them in different places. A value given as a limit tells only on which side of the number the result lay.

As to `CC(C)C[C@H](N)C(=O)N=[S@](N)(=O)c1cccs1.Cl` (single isomer, unassigned) [ANASIA-007-1], the MIC reads like this: under setting [1], 8 mg/L; under setting [2], 8 mg/L; under setting [3], 1 mg/L; under setting [4], 5.04 mg/L; under setting [5], 2 mg/L; under setting [6], 8 mg/L. Besides, the MIC under setting [7] was 16 mg/L.
Take `Cc1csc([S@@](N)(=O)=NC[C@@H](N)CC(C)C)n1` [ANASIA-004-1]: the MIC is 32 mg/L (≈ 116 µM) under setting [1]; above 64 mg/L under setting [2]; 4 mg/L (≈ 14.5 µM) under setting [3]; 64 mg/L (≈ 232 µM) under setting [4]; above 64 mg/L under setting [6]; 64 mg/L (≈ 232 µM) under setting [7].
On to `CC(C)C[C@H](N)C(=O)N=[S@](N)(=O)c1nc(Cl)cs1.Cl` [ANASIA-045-1], for which the MIC runs as follows: under setting [1], 64 mg/L; under setting [2], above 64 mg/L; under setting [3], 4 mg/L; under setting [4], 45.3 mg/L; under setting [6], above 64 mg/L; under setting [7], above 64 mg/L.
In the case of `CC(C)C[C@H](N)C(=O)N=S(N)(=O)c1csc(Cl)c1` (stereo partly drawn) [ANASIA-099], the MIC was 32 mg/L (≈ 103 µM) under setting [1]; 1 mg/L (≈ 3.23 µM) under setting [3]; 2.83 mg/L (≈ 9.13 µM) under setting [4]; 2 mg/L (≈ 6.45 µM) under setting [5]; 16 mg/L (≈ 51.6 µM) under setting [6]; above 64 mg/L under setting [7].
Consider `CC[C@H]1OC(=O)[C@H](C)[C@@H](O[C@H]2C[C@@](C)(OC)[C@@H](O)[C@H](C)O2)[C@H](C)[C@@H](O[C@@H]2O[C@H](C)C[C@H](N(C)C)[C@H]2O)[C@](C)(O)C[C@@H](C)CN(C)[C@H](C)[C@@H](O)[C@]1(C)O` [Azithromycin], for which the MIC reads like this: under setting [1], 16 mg/L (≈ 21.4 µM); under setting [2], 16 mg/L (≈ 21.4 µM); under setting [3], 4 mg/L (≈ 5.34 µM); under setting [5], 2 mg/L (≈ 2.67 µM); under setting [6], 32 mg/L (≈ 42.7 µM); under setting [7], 32 mg/L (≈ 42.7 µM).
For `CC(C)(O/N=C(\C(=O)N[C@@H]1C(=O)N2C(C(=O)[O-])=C(C[n+]3ccccc3)CS[C@H]12)c1csc(N)n1)C(=O)O` [Ceftazidime], the “Antibacterial Activity (MIC), E = A. baumannii B1931” value stood at 2 mg/L; the “Antibacterial Activity (MIC), A = E. coli ATCC 25922” value is 0.25 mg/L; the “Antibacterial Activity (MIC), G = E. coli BAA-2469” value was above 64.0 mg/L; the “Antibacterial Activity (MIC), B = Enterobacter cloacae B1966” value was 0.5 mg/L. The “Antibacterial Activity (MIC), F = H. influenzae ATCC 49247” value is recorded as 16 mg/L; the “Antibacterial Activity (MIC), C = K. pneumoniae ATCC 700603” value is recorded as above 64 mg/L; the “Antibacterial Activity (MIC), D = P. aeruginosa ATCC 27853” value was above 64 mg/L.
Regarding `C[C@@H](O)[C@H]1C(=O)N2C(C(=O)O)=C(S[C@@H]3CN[C@H](C(=O)N(C)C)C3)[C@H](C)[C@H]12` [Meropenem], the “Antibacterial Activity (MIC), E = A. baumannii B1931” value is recorded as 8 mg/L; the “Antibacterial Activity (MIC), A = E. coli ATCC 25922” value was 0.5 mg/L; the “Antibacterial Activity (MIC), G = E. coli BAA-2469” value was above 62.0 mg/L; the “Antibacterial Activity (MIC), B = Enterobacter cloacae B1966” value came to 0.5 mg/L. The “Antibacterial Activity (MIC), F = H. influenzae ATCC 49247” value turned out to be 4 mg/L; the “Antibacterial Activity (MIC), C = K. pneumoniae ATCC 700603” value was found to be 0.5 mg/L; the “Antibacterial Activity (MIC), D = P. aeruginosa ATCC 27853” value is above 64 mg/L.

(Values after US12247004B2, “2-amino-N-(amino-oxo-aryl-lambda6-sulfanylidene)acetamide compounds and their therapeutic use” (Oxford Drug Design Limited, priority 2019, dated 2025).)
